From the NIST ThermoML archive (doi:10.1016/j.jct.2012.03.034)
Numbers after ± are expanded uncertainties.

Assay: xn = mol fraction of the nth substance listed
Conditions: 101 kPa, Liquid; for viscosity: dual vibrating plate viscometer, AandD Co. Ltd Model SV-10; for speed of sound: Linear variable-path acoustic interferometer; for mass density: Vibrating tube method

Compound `CC[NH2+]CC.O=S(=O)([O-])O` [diethylammonium hydrogen sulfate] + CN1CCCC1=O has a viscosity (303.15 K, x1 = 1) of 28.9 ± 0.6 mPa·s, a speed of sound (308.15 K, x1 = 0.016) of 1533 ± 2 m/s and a speed of sound (308.15 K, x1 = 0.0347) of 1530 ± 2 m/s. The speed of sound (308.15 K, x1 = 0.092) was 1521 ± 2 m/s, the speed of sound (308.15 K, x1 = 0.1316) was 1518 ± 2 m/s and the speed of sound (308.15 K, x1 = 0.1916) was 1511 ± 2 m/s. It also gave a speed of sound (308.15 K, x1 = 0.2992) of 1503 ± 2 m/s, a speed of sound (308.15 K, x1 = 0.3455) of 1500 ± 2 m/s and a speed of sound (308.15 K, x1 = 0.4175) of 1496 ± 2 m/s. The speed of sound (308.15 K, x1 = 0.5442) was 1485 ± 2 m/s, the speed of sound (308.15 K, x1 = 0.6829) was 1468 ± 2 m/s and the speed of sound (308.15 K, x1 = 0.8359) was 1437 ± 2 m/s. For the same compound, the speed of sound (308.15 K, x1 = 0.9342) was 1414 ± 2 m/s, the speed of sound (308.15 K, x1 = 0.9684) was 1404 ± 2 m/s and the speed of sound (308.15 K, x1 = 1) was 1392 ± 2 m/s. It also gave a mass density (308.15 K, x1 = 0.016) of 1030.03 ± 0.78 kg/m3, a mass density (308.15 K, x1 = 0.0347) of 1043.78 ± 0.75 kg/m3 and a mass density (308.15 K, x1 = 0.092) of 1080.92 ± 0.73 kg/m3. The mass density (308.15 K, x1 = 0.1316) was 1103.13 ± 0.68 kg/m3, the mass density (308.15 K, x1 = 0.1916) was 1133.63 ± 0.63 kg/m3 and the mass density (308.15 K, x1 = 0.2992) was 1169.38 ± 0.65 kg/m3. It also gave a mass density (308.15 K, x1 = 0.3455) of 1179.79 ± 0.64 kg/m3, a mass density (308.15 K, x1 = 0.4175) of 1190.23 ± 0.66 kg/m3 and a mass density (308.15 K, x1 = 0.5442) of 1198.01 ± 0.7 kg/m3. The mass density (308.15 K, x1 = 0.6829) was 1198.27 ± 0.73 kg/m3, the mass density (308.15 K, x1 = 0.8359) was 1198.28 ± 0.77 kg/m3 and the mass density (308.15 K, x1 = 0.9342) was 1200.49 ± 0.79 kg/m3. For the same compound, the mass density (308.15 K, x1 = 0.9684) was 1202.65 ± 0.8 kg/m3, the mass density (308.15 K, x1 = 1) was 1205.43 ± 0.79 kg/m3 and the viscosity (308.15 K, x1 = 0.0347) was 0.67 ± 0.06 mPa·s. For the same compound, the viscosity (308.15 K, x1 = 0.092) was 4.42 ± 0.13 mPa·s, the viscosity (308.15 K, x1 = 0.1316) was 9.53 ± 0.24 mPa·s and the viscosity (308.15 K, x1 = 0.1916) was 17.3 ± 0.38 mPa·s. It also gave a viscosity (308.15 K, x1 = 0.2992) of 30.7 ± 0.65 mPa·s, a viscosity (308.15 K, x1 = 0.3455) of 36.84 ± 0.77 mPa·s and a viscosity (308.15 K, x1 = 0.4175) of 45.89 ± 0.95 mPa·s. The viscosity (308.15 K, x1 = 0.5442) was 57.51 ± 1.2 mPa·s, the viscosity (308.15 K, x1 = 0.6829) was 63.11 ± 1.3 mPa·s and the viscosity (308.15 K, x1 = 0.8359) was 55.29 ± 1.1 mPa·s. It also gave a viscosity (308.15 K, x1 = 0.9342) of 37.86 ± 0.81 mPa·s, a viscosity (308.15 K, x1 = 0.9684) of 27.69 ± 0.61 mPa·s and a viscosity (308.15 K, x1 = 1) of 24.6 ± 0.51 mPa·s. For the same compound, the speed of sound (313.15 K, x1 = 0.016) was 1529 ± 2 m/s, the speed of sound (313.15 K, x1 = 0.0346) was 1529 ± 2 m/s and the speed of sound (313.15 K, x1 = 0.092) was 1521 ± 2 m/s. The speed of sound (313.15 K, x1 = 0.1316) was 1516 ± 2 m/s, the speed of sound (313.15 K, x1 = 0.1916) was 1511 ± 2 m/s and the speed of sound (313.15 K, x1 = 0.2992) was 1502 ± 2 m/s. The speed of sound (313.15 K, x1 = 0.3455) was 1498 ± 2 m/s, the speed of sound (313.15 K, x1 = 0.4175) was 1491 ± 2 m/s and the speed of sound (313.15 K, x1 = 0.5442) was 1474 ± 2 m/s. For the same compound, the speed of sound (313.15 K, x1 = 0.6829) was 1450 ± 2 m/s, the speed of sound (313.15 K, x1 = 0.8359) was 1411 ± 2 m/s and the speed of sound (313.15 K, x1 = 0.9342) was 1382 ± 2 m/s. For the same compound, the speed of sound (313.15 K, x1 = 0.9684) was 1370 ± 2 m/s, the speed of sound (313.15 K, x1 = 1) was 1356 ± 2 m/s and the mass density (313.15 K, x1 = 0.016) was 1020.1 ± 0.58 kg/m3. For the same compound, the mass density (313.15 K, x1 = 0.0346) was 1031.41 ± 0.63 kg/m3, the mass density (313.15 K, x1 = 0.092) was 1060.41 ± 0.64 kg/m3 and the mass density (313.15 K, x1 = 0.1316) was 1079.57 ± 0.6 kg/m3. The mass density (313.15 K, x1 = 0.1916) was 1100.33 ± 0.62 kg/m3, the mass density (313.15 K, x1 = 0.2992) was 1123.81 ± 0.7 kg/m3 and the mass density (313.15 K, x1 = 0.3455) was 1129.72 ± 0.72 kg/m3. It also gave a mass density (313.15 K, x1 = 0.4175) of 1134.34 ± 0.78 kg/m3, a mass density (313.15 K, x1 = 0.5442) of 1134.82 ± 0.87 kg/m3 and a mass density (313.15 K, x1 = 0.6829) of 1128.95 ± 0.9 kg/m3. It also gave a mass density (313.15 K, x1 = 0.8359) of 1123.69 ± 0.95 kg/m3, a mass density (313.15 K, x1 = 0.9342) of 1123.28 ± 0.99 kg/m3 and a mass density (313.15 K, x1 = 0.9684) of 1124.6 ± 1 kg/m3. It also gave a mass density (313.15 K, x1 = 1) of 1126.81 ± 1 kg/m3, a viscosity (313.15 K, x1 = 0.0346) of 0.48 ± 0.03 mPa·s and a viscosity (313.15 K, x1 = 0.092) of 2.06 ± 0.07 mPa·s. The viscosity (313.15 K, x1 = 0.1316) was 5.97 ± 0.17 mPa·s, the viscosity (313.15 K, x1 = 0.1916) was 13.15 ± 0.3 mPa·s and the viscosity (313.15 K, x1 = 0.2992) was 24.74 ± 0.52 mPa·s. For the same compound, the viscosity (313.15 K, x1 = 0.3455) was 30.42 ± 0.64 mPa·s, the viscosity (313.15 K, x1 = 0.4175) was 36.87 ± 0.77 mPa·s and the viscosity (313.15 K, x1 = 0.5442) was 46.82 ± 0.97 mPa·s. It also gave a viscosity (313.15 K, x1 = 0.6829) of 52.39 ± 1.1 mPa·s, a viscosity (313.15 K, x1 = 0.8359) of 46.21 ± 0.96 mPa·s and a viscosity (313.15 K, x1 = 0.9342) of 30.9 ± 0.66 mPa·s. The viscosity (313.15 K, x1 = 0.9684) was 23.03 ± 0.49 mPa·s and the viscosity (313.15 K, x1 = 1) was 21.9 ± 0.45 mPa·s.
